Laboratory results taken from PubChem BioAssay AID248 (DTP/NCI, 2004).
Where “and” joins values, the source holds several entries; their conditions need not be identical. Equal values may be shown once. Toxic doses and inconclusive results are not listed. No stated cut-off is given here; in the data, active means T/C of 150% or more; inactive means T/C below 125%.

Test system: L1210 leukemia ip in BDF1 mice, survival T/C
Assay: NCI In Vivo Anticancer Drug Screen. Data for tumor model L1210 Leukemia (intraperitoneal) in B6D2F1 (BDF1) mice
Conditions: endpoint: mean survival time, higher = longer survival
Outline: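 Ratio derived from survival: compound-dosed mice over vehicle-dosed mice, all bearing a transplantable tumor.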

[1] = dose: 100.0 mg/kg/injection, schedule: Q01DX009 (ip), vehicle: Klucel (hydroxypropylcellulose) (HPC)
[2] = dose: 100.0 mg/kg/injection, schedule: Q04DX003 (ip), vehicle: Klucel (hydroxypropylcellulose) (HPC)
[3] = dose: 200.0 mg/kg/injection, schedule: Q01DX009 (ip), vehicle: Klucel (hydroxypropylcellulose) (HPC)
[4] = dose: 200.0 mg/kg/injection, schedule: Q04DX003 (ip), vehicle: Klucel (hydroxypropylcellulose) (HPC)
[5] = dose: 400.0 mg/kg/injection, schedule: Q01DX009 (ip), vehicle: Klucel (hydroxypropylcellulose) (HPC)
[6] = dose: 400.0 mg/kg/injection, schedule: Q04DX003 (ip), vehicle: Klucel (hydroxypropylcellulose) (HPC)
[7] = dose: 50.0 mg/kg/injection, schedule: Q01DX009 (ip), vehicle: saline
[8] = dose: 100.0 mg/kg/injection, schedule: Q01DX009 (ip), vehicle: saline
[9] = dose: 200.0 mg/kg/injection, schedule: Q01DX009 (ip), vehicle: saline
[10] = dose: 100.0 mg/kg/injection, schedule: Q04DX003 (ip), vehicle: saline with Tween-80
[11] = dose: 200.0 mg/kg/injection, schedule: Q04DX003 (ip), vehicle: saline with Tween-80
[12] = dose: 400.0 mg/kg/injection, schedule: Q04DX003 (ip), vehicle: saline with Tween-80
[13] = dose: 75.0 mg/kg/injection, schedule: Q01DX001 (ip), vehicle: saline
[14] = dose: 150.0 mg/kg/injection, schedule: Q01DX001 (ip), vehicle: saline
[15] = dose: 300.0 mg/kg/injection, schedule: Q01DX001 (ip), vehicle: saline
[16] = dose: 400.0 mg/kg/injection, schedule: Q01DX009 (ip), vehicle: saline
[17] = dose: 100.0 mg/kg/injection, schedule: Q01DX001 (ip), vehicle: saline
[18] = dose: 200.0 mg/kg/injection, schedule: Q01DX001 (ip), vehicle: saline
[19] = dose: 400.0 mg/kg/injection, schedule: Q01DX001 (ip), vehicle: saline
[20] = dose: 100.0 mg/kg/injection, schedule: Q01DX009 (ip), vehicle: saline with Tween-80
[21] = dose: 200.0 mg/kg/injection, schedule: Q01DX009 (ip), vehicle: saline with Tween-80
[22] = dose: 400.0 mg/kg/injection, schedule: Q01DX009 (ip), vehicle: saline with Tween-80
[23] = dose: 100.0 mg/kg/injection, schedule: Q04DX003 (ip), vehicle: saline
[24] = dose: 200.0 mg/kg/injection, schedule: Q04DX003 (ip), vehicle: saline
[25] = dose: 400.0 mg/kg/injection, schedule: Q04DX003 (ip), vehicle: saline
[26] = dose: 100.0 mg/kg/injection, schedule: Q01DX001 (ip), vehicle: carboxymethylcellulose (CMC)
[27] = dose: 200.0 mg/kg/injection, schedule: Q01DX001 (ip), vehicle: carboxymethylcellulose (CMC)
[28] = dose: 400.0 mg/kg/injection, schedule: Q01DX001 (ip), vehicle: carboxymethylcellulose (CMC)

Measured: T/C

Cc1c(Cl)cccc1NC(=O)c1ccc(Cl)cc1Cl
inactive: [1] 92 % of control | [2] 92 % of control | [3] 94 % of control | [4] 95 % of control | [5] 91 % of control | [6] 93 % of control

O=c1oc(-c2cccc(Cl)c2)nc2cc(Cl)ccc12
inactive: [1] 104 % of control | [3] 116 % of control | [5] 115 % of control

O=C(O)C(CCl)(CCl)CCl
inactive: [7] 106 % of control | [8] 98 % of control | [9] 95 % of control

CC(=O)Nc1ccc2c(c1)C(=Nc1ccccc1)c1ccccc1-2
inactive: [10] 91 % of control | [11] 91 % of control | [12] 91 % of control

NOCc1cnccn1
inactive: [13] 92 % of control | [14] 96 % of control | [15] 88 % of control

Cc1c(C(=O)O)nnn1-c1ccc(Cl)cc1Cl
inactive: dose: 100.0 mg/kg/injection, schedule: Q04DX002 (ip), vehicle: Klucel (hydroxypropylcellulose) (HPC) 97 % of control | dose: 200.0 mg/kg/injection, schedule: Q04DX002 (ip), vehicle: Klucel (hydroxypropylcellulose) (HPC) 101 % of control

CC(=O)c1c(OC(=O)c2ccccc2)cc(OC(=O)c2ccccc2)cc1OC(=O)c1ccccc1
inactive: [1] 101 % of control | [8] 97 % of control | [3] 93 % of control | [9] 106 % of control | [5] 95 % of control | [16] 100 % of control

O=C1NC(=O)C2(N1)c1ccccc1-c1ccccc12
inactive: [1] 95 % of control | [3] 90 % of control | [5] 95 % of control

CC(=O)Nc1ccc(OC(=O)Nc2ccc(C)cc2[N+](=O)[O-])cc1
inactive: [2] 91 % of control | [4] 102 % of control | [6] 106 % of control

O=S(=O)(Oc1ccc(Br)cc1)C1CC1c1ccccc1 (stereo unspecified)
inactive: [17] 106 % of control | [18] 98 % of control | [19] 103 % of control

CCCCCCCCCCCCCCCC(=O)N1CCCN(C(=O)CCCCCCCCCCCCCCC)C1
inactive: dose: 30.0 mg/kg/injection, schedule: Q01DX001 (ip), vehicle: saline 93 % of control | [17] 88 % of control | [15] 94 % of control

NC(Cc1ccc(O)cc1)C(=O)CCl (stereo unspecified)
inactive: dose: 25.0 mg/kg/injection, schedule: Q04DX002 (ip), vehicle: saline 110 % of control | dose: 50.0 mg/kg/injection, schedule: Q04DX002 (ip), vehicle: saline 105 % of control

CCOC(=O)c1ccc(NC(=O)Nc2ccccc2C(F)(F)F)cc1
inactive: [1] 88 % of control | [3] 89 % of control | [5] 86 % of control

CCOC(=O)/C=C(/C)Nc1ccc(SC)cc1
inactive: [20] 100 % of control | [21] 96 % of control | [22] 100 % of control

CC(=O)CC(=O)NCc1cccnc1
inactive: dose: 50.0 mg/kg/injection, schedule: Q04DX003 (ip), vehicle: saline 106 % of control | [8] 93 % of control | [23] 97 % of control | [9] 104 % of control | [24] 94 % of control and 100 % of control | [16] 98 % of control | [25] 96 % of control

O=C1c2ccccc2C(=O)c2c1ccc1c(S(=O)(=O)Cl)cccc21
inactive: dose: 100.0 mg/kg/injection, schedule: Q04DX002 (ip), vehicle: saline 122 % of control | dose: 200.0 mg/kg/injection, schedule: Q04DX002 (ip), vehicle: saline 97 % of control | dose: 400.0 mg/kg/injection, schedule: Q04DX002 (ip), vehicle: saline 94 % of control

Clc1ccc(N=Cc2ccccc2Cl)cc1
inactive: [20] 94 % of control | [21] 92 % of control | [22] 89 % of control

CCC(=O)N/N=C/C=N/NC(=O)c1ccncc1
inactive: [13] 96 % of control | dose: 100.0 mg/kg/injection, schedule: Q01DX001 (ip), vehicle: Klucel (hydroxypropylcellulose) (HPC) 97 % of control | [1] 93 % of control | [14] 99 % of control | dose: 200.0 mg/kg/injection, schedule: Q01DX001 (ip), vehicle: Klucel (hydroxypropylcellulose) (HPC) 101 % of control | [3] 100 % of control | [15] 92 % of control | dose: 400.0 mg/kg/injection, schedule: Q01DX001 (ip), vehicle: Klucel (hydroxypropylcellulose) (HPC) 94 % of control

Cc1cc(OC(=O)Nc2cccc(Cl)c2Cl)c(C(C)C)cc1Cl
inactive: [1] 97 % of control | [3] 94 % of control | [5] 100 % of control

CCCCC(=O)N/N=C/c1cc2c(cc1[N+](=O)[O-])OCO2 (tested in a mixture with another compound)
inactive: [26] 91 % of control | [27] 91 % of control | [28] 91 % of control

O=c1[nH]nc(CCc2ccc([N+](=O)[O-])cc2)o1
inactive: [8] 93 % of control | [9] 94 % of control | [16] 104 % of control

Cc1ccc(S(=O)(=O)N/N=C(\CSc2ccc([N+](=O)[O-])cc2)c2ccccc2)cc1
inactive: [10] 87 % of control | [11] 92 % of control | [12] 88 % of control

C=C1C(=O)O[C@@H]2[C@H]1CC[C@H](C)[C@@H]1CCC(=O)[C@@]21C
inactive: [17] 102 % of control | [18] 100 % of control | [19] 98 % of control

CC(=O)c1ccc(C(C)(C)C)cc1
inactive: [26] 105 % of control | [27] 100 % of control | [28] 100 % of control

CC(C)=CCNc1ncnc2c1ncn2C1OC(CO)C(O)C1O (stereo unspecified)
inactive: dose: 50.0 mg/kg/injection, schedule: Q01DX001 (ip), vehicle: saline 98 % of control | [7] 118 % of control | dose: 50.0 mg/kg/injection, schedule: Q01DX015 (ip), vehicle: saline 108 % of control | [17] 93 % of control | [8] 110 % of control | [2] 93 % of control | [10] 96 % of control | dose: 150.0 mg/kg/injection, schedule: Q01DX015 (ip), vehicle: saline 113 % of control | [18] 96 % of control | [4] 104 % of control | [11] 102 % of control

O=[N+]([O-])c1ccc(O)c(C=Nc2cnc3ccccc3c2)c1
inactive: [26] 88 % of control | [27] 93 % of control | [28] 90 % of control

COc1c(Cl)c(C(Cl)(Cl)Cl)nc2ccccc12
inactive: dose: 50.0 mg/kg/injection, schedule: Q01DX009 (ip), vehicle: Klucel (hydroxypropylcellulose) (HPC) 101 % of control | [1] 104 % of control

CCOc1ncnc2c1ncn2-c1cccc(C)c1
inactive: dose: 50.0 mg/kg/injection, schedule: Q01DX001 (ip), vehicle: carboxymethylcellulose (CMC) 98 % of control | [26] 110 % of control | [27] 101 % of control | [28] 98 % of control

COc1ccccc1NC(=O)c1ccc(Cl)cc1
inactive: [1] 91 % of control | [2] 105 % of control | [3] 98 % of control | [4] 108 % of control | [5] 102 % of control | [6] 97 % of control

CC1(C)N=C(N)N=C(N)N1c1ccc(CCC(=O)CCl)cc1
inactive: dose: 25.0 mg/kg/injection, schedule: Q01DX001 (ip), vehicle: saline with Tween-80 92 % of control | dose: 50.0 mg/kg/injection, schedule: Q01DX001 (ip), vehicle: saline with Tween-80 95 % of control | dose: 100.0 mg/kg/injection, schedule: Q01DX001 (ip), vehicle: saline with Tween-80 95 % of control

CC1(C)N=C(N)N=C(N)N1c1cccc(CCCCOc2ccccc2)c1
inactive: dose: 6.25 mg/kg/injection, schedule: Q04DX003 (ip), vehicle: saline with Tween-80 101 % of control | dose: 12.5 mg/kg/injection, schedule: Q04DX003 (ip), vehicle: saline with Tween-80 106 % of control | dose: 25.0 mg/kg/injection, schedule: Q04DX003 (ip), vehicle: saline with Tween-80 95 % of control

O=N[O-].O=N[O-].O=N[O-].[Co+3].[NH2-].[NH2-].[NH2-]
inactive: [17] 92 % of control | [23] 119 % of control | [18] 90 % of control | [24] 105 % of control | [19] 97 % of control | [25] 97 % of control

COc1cccc(N=Cc2ccc(OC(=O)c3ccccc3)c(OC)c2)c1
inactive: [1] 91 % of control | [3] 94 % of control | [5] 92 % of control
